Measurements from US20210045385A1, “PYRIDAZINONE-SUBSTITUTED KETOXIMES AS HERBICIDES” (FMC Corporation, priority 2018, published 2021).

How the values were obtained:
Type in all cases: in vivo
[1] = system: ducksalad (Heteranhera limosa); experiment: Test B flooded paddy test, visual plant response rating; conditions: 250 g ai/ha, Flood, applied to paddy water, 2-leaf stage, evaluated after 13 to 15 days
Method in brief: (§1)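 2-leaf plants; pots flooded 3 cm over soil surface; compound dosed straight into the floodwater; depth kept constant; greenhouse 13–15 d; visual rating vs. untreated controls.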

[2] = system: barnyardgrass (Echinochloa crus-galli); experiment: as above; conditions: 250 g ai/ha, Flood, applied to paddy water, 2-leaf stage, evaluated after 13 to 15 days
Method in brief: as §1

rice (Oryza sativa) = experiment: as above; conditions: 250 g ai/ha, Flood, applied to paddy water, 2-leaf stage, evaluated after 13 to 15 days
Method in brief: as §1

[3] = system: sedge, umbrella (small-flower umbrella sedge, Cyperus difformis); experiment: as above; conditions: 250 g ai/ha, Flood, applied to paddy water, 2-leaf stage, evaluated after 13 to 15 days
Method in brief: as §1

[4] = system: Italian ryegrass (Lolium multiflorum); experiment: Test A preemergence, visual plant response rating; conditions: for Ryegrass, Italian plant response rating: 125 g ai/ha, preemergence, 0 to 100 scale, 0 no effect, 100 complete control; for Ryegrass, Italian plant response rating (0 to 100 scale): 500 g ai/ha Preemergence, approx. 10 days
Method in brief: (§2)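 Formulated in a non-phytotoxic solvent mixture including surfactant, each test chemical was sprayed onto the soil surface after sowing, or onto seedlings 2 to 10 cm high. Roughly 10 days later, plants were compared with untreated controls and rated for injury from 0 (no effect) to 100 (complete control).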

[5] = system: barnyardgrass (Echinochloa crus-galli); experiment: Test A preemergence, visual plant response rating; conditions: for Barnyardgrass plant response rating: 125 g ai/ha, preemergence, 0 to 100 scale, 0 no effect, 100 complete control; for Barnyardgrass plant response rating (0 to 100 scale): 500 g ai/ha Preemergence, approx. 10 days
Method in brief: as §2

[6] = system: foxtail, giant (giant foxtail, Setaria faberii); experiment: Test A preemergence, visual plant response rating; conditions: for Foxtail, Giant plant response rating: 125 g ai/ha, preemergence, 0 to 100 scale, 0 no effect, 100 complete control; for Foxtail, Giant plant response rating (0 to 100 scale): 500 g ai/ha Preemergence, approx. 10 days
Method in brief: as §2

[7] = system: ragweed (common ragweed, Ambrosia elatior); experiment: Test A preemergence, visual plant response rating; conditions: for Ragweed plant response rating: 125 g ai/ha, preemergence, 0 to 100 scale, 0 no effect, 100 complete control; for Ragweed plant response rating (0 to 100 scale): 500 g ai/ha Preemergence, approx. 10 days
Method in brief: as §2

kochia (Kochia scoparia) [8] = experiment: Test A preemergence, visual plant response rating; conditions: for Kochia plant response rating: 125 g ai/ha, preemergence, 0 to 100 scale, 0 no effect, 100 complete control; for Kochia plant response rating (0 to 100 scale): 500 g ai/ha Preemergence, approx. 10 days
Method in brief: as §2

[9] = system: pigweed (Amaranthus retroflexus); experiment: Test A preemergence, visual plant response rating; conditions: for Pigweed plant response rating: 125 g ai/ha, preemergence, 0 to 100 scale, 0 no effect, 100 complete control; for Pigweed plant response rating (0 to 100 scale): 500 g ai/ha Preemergence, approx. 10 days
Method in brief: as §2

[10] = system: Italian ryegrass (Lolium multiflorum); experiment: Test A postemergence, visual plant response rating
Method in brief: as §2

corn (Zea mays) = experiment: Test A postemergence, visual plant response rating; conditions: for Corn plant response rating (0 to 100 scale): 500 g ai/ha, postemergence, 0 is no effect, 100 is complete control; for Corn plant response rating: Postemergence, 125 g ai/ha, 0 to 100 scale (0 no effect, 100 complete control)
Method in brief: as §2

[11] = system: galium (catchweed bedstraw, Galium aparine); experiment: Test A postemergence, visual plant response rating; conditions: for Galium plant response rating (0 to 100 scale): 500 g ai/ha, postemergence, 0 is no effect, 100 is complete control; for Galium plant response rating: Postemergence, 125 g ai/ha, 0 to 100 scale (0 no effect, 100 complete control)
Method in brief: as §2

[12] = system: barnyardgrass (Echinochloa crus-galli); experiment: Test A postemergence, visual plant response rating; conditions: for Barnyardgrass plant response rating (0 to 100 scale): 500 g ai/ha, postemergence, 0 is no effect, 100 is complete control; for Barnyardgrass plant response rating: Postemergence, 125 g ai/ha, 0 to 100 scale (0 no effect, 100 complete control)
Method in brief: as §2

[13] = system: foxtail, giant (giant foxtail, Setaria faberii); experiment: Test A postemergence, visual plant response rating; conditions: for Foxtail, Giant plant response rating (0 to 100 scale): 500 g ai/ha, postemergence, 0 is no effect, 100 is complete control; for Foxtail, Giant plant response rating: Postemergence, 125 g ai/ha, 0 to 100 scale (0 no effect, 100 complete control)
Method in brief: as §2

[14] = system: wheat (Triticum aestivum); experiment: Test A postemergence, visual plant response rating; conditions: for Wheat plant response rating: 0 to 100 scale (0 no effect, 100 complete control)
Method in brief: as §2

[15] = system: blackgrass (Alopecurus myosuroides); experiment: Test A postemergence, visual plant response rating; conditions: for Blackgrass plant response rating (0 to 100 scale): 500 g ai/ha, postemergence, 0 is no effect, 100 is complete control; for Blackgrass plant response rating: Postemergence, 125 g ai/ha, 0 to 100 scale (0 no effect, 100 complete control)
Method in brief: as §2

[16] = system: ragweed (common ragweed, Ambrosia elatior); experiment: Test A postemergence, visual plant response rating; conditions: for Ragweed plant response rating (0 to 100 scale): 500 g ai/ha, postemergence, 0 is no effect, 100 is complete control; for Ragweed plant response rating: Postemergence, 125 g ai/ha, 0 to 100 scale (0 no effect, 100 complete control)
Method in brief: as §2

kochia (Kochia scoparia) [17] = experiment: Test A postemergence, visual plant response rating; conditions: for Kochia plant response rating (0 to 100 scale): 500 g ai/ha, postemergence, 0 is no effect, 100 is complete control; for Kochia plant response rating: Postemergence, 125 g ai/ha, 0 to 100 scale (0 no effect, 100 complete control)
Method in brief: as §2

[18] = system: pigweed (Amaranthus retroflexus); experiment: Test A postemergence, visual plant response rating; conditions: for Pigweed plant response rating (0 to 100 scale): 500 g ai/ha, postemergence, 0 is no effect, 100 is complete control; for Pigweed plant response rating: Postemergence, 125 g ai/ha, 0 to 100 scale (0 no effect, 100 complete control)
Method in brief: as §2

[19] = 500 g ai/ha, postemergence, 0 is no effect, 100 is complete control

Structure (SMILES) | Plant response rating, Ducksalad (0 to 100 scale, 0 is no effect, 100 is complete control) [1] | Plant response rating, Barnyardgrass (0 to 100 scale, 0 is no effect, 100 is complete control) [2] | Plant response rating, Rice (0 to 100 scale, 0 is no effect, 100 is complete control) (rice (Oryza sativa)) | Plant response rating, Sedge, Umbrella (0 to 100 scale, 0 is no effect, 100 is complete control) [3] | Ryegrass, Italian plant response rating [4] | Ryegrass, Italian plant response rating (0 to 100 scale) [4] | Barnyardgrass plant response rating [5] | Barnyardgrass plant response rating (0 to 100 scale) [5] | Foxtail, Giant plant response rating [6] | Foxtail, Giant plant response rating (0 to 100 scale) [6] | Ragweed plant response rating [7] | Ragweed plant response rating (0 to 100 scale) [7] | Kochia plant response rating (kochia (Kochia scoparia) [8]) | Kochia plant response rating (0 to 100 scale) (kochia (Kochia scoparia) [8]) | Pigweed plant response rating [9] | Pigweed plant response rating (0 to 100 scale) [9] | Ryegrass, Italian plant response rating (0 to 100 scale) [10, 19] | Corn plant response rating (0 to 100 scale) (corn (Zea mays)) | Corn plant response rating (corn (Zea mays)) | Galium plant response rating (0 to 100 scale) [11] | also measured
CO/N=C(/c1c(O)c(C)nn(C)c1=O)c1ccc(OC)c2ccccc12 [Compound 142] | 0 | 0 | 0 | 0 | 0 | 20 | 0 | 50 | 10 | 60 | 0 | 20 | 0 | 0 | 0 | 0 | 70 | 30 | 0 | 70 | Ryegrass, Italian plant response rating (0 to 100 scale) ([10]; Postemergence, rate not given, approx. 10 days): 0; Galium plant response rating [11]: 50; Barnyardgrass plant response rating (0 to 100 scale) [12]: 10; Barnyardgrass plant response rating [12]: 10; Foxtail, Giant plant response rating (0 to 100 scale) [13]: 30; Foxtail, Giant plant response rating [13]: 20; Wheat plant response rating ([14]; Postemergence, 500 g ai/ha): 10; Wheat plant response rating (0 to 100 scale) ([14]; Postemergence, approx. 10 days): 0; Blackgrass plant response rating (0 to 100 scale) [15]: 80; Blackgrass plant response rating [15]: 30; Ragweed plant response rating (0 to 100 scale) [16]: 30; Ragweed plant response rating [16]: 0; Kochia plant response rating (0 to 100 scale) (kochia (Kochia scoparia) [17]): 30; Kochia plant response rating (kochia (Kochia scoparia) [17]): 0; Pigweed plant response rating (0 to 100 scale) [18]: 10; Pigweed plant response rating [18]: 10
Cc1ccc(Cl)cc1/C(=N\O)c1c(O)c(C)nn(C)c1=O [Compound 35] | 0 | 0 | 0 | 0 | 0 | 10 | 0 | 0 | 0 | 0 | 0 | 10 | 0 | 0 | 0 | 0 | 20 | 0 | 0 | 70 | Ryegrass, Italian plant response rating ([10]; Postemergence, 125 g ai/ha, 0 to 100 scale (0 no effect, 100 complete control)): 0; Galium plant response rating [11]: 20; Barnyardgrass plant response rating (0 to 100 scale) [12]: 0; Barnyardgrass plant response rating [12]: 0; Foxtail, Giant plant response rating (0 to 100 scale) [13]: 0; Foxtail, Giant plant response rating [13]: 0; Wheat plant response rating (0 to 100 scale) [14, 19]: 0; Wheat plant response rating ([14]; Postemergence, 125 g ai/ha): 0; Blackgrass plant response rating (0 to 100 scale) [15]: 20; Blackgrass plant response rating [15]: 0; Ragweed plant response rating (0 to 100 scale) [16]: 20; Ragweed plant response rating [16]: 10; Kochia plant response rating (0 to 100 scale) (kochia (Kochia scoparia) [17]): 10; Kochia plant response rating (kochia (Kochia scoparia) [17]): 0; Pigweed plant response rating (0 to 100 scale) [18]: 20; Pigweed plant response rating [18]: 10
